How the values were obtained:
[1] = molecular target: T1, serotonin (5-HT) reuptake (Rattus norvegicus, UniProt P31652); experiment: Inhibition of serotonin (5HT) reuptake in synaptosomes from rat brain; assay type: biochemical; details: for 5-HT (inhibition of reuptake of serotonin, % inhibition): test concentration of 10 μM; for inhibition at 10 µM / 5-HT reuptake: Table 2, test concentration 10 μM; for inhibition at 10 µM: read-out: 5-HT reuptake
T1 construct: synaptosomes are freshly isolated from areas of the rat brain; from tissue; host or cells: rat brain synaptosomes (P2 fraction)
T1 sequence (P31652 whole entry): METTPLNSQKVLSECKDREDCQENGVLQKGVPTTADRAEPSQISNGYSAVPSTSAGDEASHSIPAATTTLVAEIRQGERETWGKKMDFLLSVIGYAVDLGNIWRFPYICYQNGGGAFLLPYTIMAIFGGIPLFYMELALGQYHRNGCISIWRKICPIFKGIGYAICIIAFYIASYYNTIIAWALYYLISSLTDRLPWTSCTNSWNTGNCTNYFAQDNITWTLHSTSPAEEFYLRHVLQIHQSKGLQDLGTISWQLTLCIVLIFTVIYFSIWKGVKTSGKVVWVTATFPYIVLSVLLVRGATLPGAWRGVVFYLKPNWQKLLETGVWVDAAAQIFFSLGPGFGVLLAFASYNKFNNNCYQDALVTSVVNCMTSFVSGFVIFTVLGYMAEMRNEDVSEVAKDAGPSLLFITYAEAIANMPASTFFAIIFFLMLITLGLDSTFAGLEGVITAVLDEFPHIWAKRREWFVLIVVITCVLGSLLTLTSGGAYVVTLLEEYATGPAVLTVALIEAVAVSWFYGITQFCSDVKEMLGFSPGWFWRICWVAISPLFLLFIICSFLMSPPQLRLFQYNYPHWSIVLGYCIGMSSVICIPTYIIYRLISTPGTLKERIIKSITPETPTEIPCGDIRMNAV
In short: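 Compounds screened at 10 μM and reported as percent inhibition of serotonin uptake. Uptake measured in a freshly prepared P2 synaptosomal fraction from rat brain.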

[2] = molecular target: T2, human bradykinin 1 receptor (B1R) (Homo sapiens, UniProt P46663); experiment: Functional investigation on the human bradykinin 1 receptor (B1R), Ca2+ FLIPR assay in CHO K1 hB1R cells; assay type: cell-based; details: test substance 10 μM, Ca2+ FLIPR, CHO K1 hB1R cells; for B1R Ant. h [10 μM] % Inhibition: B1R antagonism human; for inhibition at 10 µM: CHO-K1, B1R antagonism human, read-out: B1R Ant. h [10 μM] % Inhibition
T2 construct: expressed in transfected cells; host or cells: CHO K1 cells
T2 sequence (P46663 1-353): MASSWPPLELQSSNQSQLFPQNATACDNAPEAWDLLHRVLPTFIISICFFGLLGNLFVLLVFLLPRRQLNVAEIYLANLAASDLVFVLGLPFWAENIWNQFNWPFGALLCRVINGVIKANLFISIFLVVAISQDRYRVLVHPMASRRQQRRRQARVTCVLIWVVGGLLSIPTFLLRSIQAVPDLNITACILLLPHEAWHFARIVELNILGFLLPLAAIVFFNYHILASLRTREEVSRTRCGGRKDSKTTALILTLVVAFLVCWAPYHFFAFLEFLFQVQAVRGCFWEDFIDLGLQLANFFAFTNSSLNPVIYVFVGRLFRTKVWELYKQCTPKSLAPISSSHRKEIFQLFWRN
In short: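 Peak Ca2+-dependent fluorescence in B1R-transfected CHO K1 cells measures antagonism of an EC80 agonist challenge given 10-20 min after compound. Agonist is Lys-Des-Arg9-bradykinin for human, Des-Arg9-bradykinin for rat receptor.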

Row | SMILES | 5-HT (inhibition of reuptake of serotonin, % inhibition) [1] | B1R Ant. h [10 μM] % Inhibition [2] | inhibition at 10 µM [1] | inhibition at 10 µM [2] | 5-HT reuptake [1]
1 | CN(C)C(c1cccc(F)c1)C1CCC(NC(=O)COCCN(C)S(=O)(=O)c2ccc(OC(F)(F)F)cc2)CC1 (stereo not drawn) [Example 246] | 91% | 10% |  |  | 
2 | CN(C)C(c1cccc(F)c1)C1CCC(CCNC(=O)COC2CCN(S(=O)(=O)c3ccc(Cl)cc3)C2)CC1 (stereo not drawn) [Example 247] | 89% | 4% |  |  | 
3 | COc1cc(C)c(S(=O)(=O)N(C)CCOCC(=O)NCC2CCC(C(c3cccc(F)c3)N(C)C)CC2)c(C)c1 (stereo not drawn) [Example 248] | 90% | 104% |  |  | 
4 | CN(C)C(c1ccc(F)cc1)C1CCC(CNC(=O)COCCN(C)S(=O)(=O)c2ccc(Cl)cc2Cl)CC1 (stereo not drawn) [Example 249] | 95% | 104% |  |  | 
5 | COc1ccc(S(=O)(=O)N(C)CCOCC(=O)NC2CCC(C(c3cccc(F)c3)N(C)C)CC2)cc1 (stereo not drawn) [Example 250] | 84% | 12% |  |  | 
6 | COc1cc(C)c(S(=O)(=O)N2CCC(OCC(=O)NC3CCC(C(c4cccc(F)c4)N(C)C)CC3)C2)c(C)c1 (stereo not drawn) [Example 251] | 98% | 81% |  |  | 
7 | COc1cc(C)c(S(=O)(=O)N2CCC(OCC(=O)NCC3CCC(C(c4cccc(F)c4)N(C)C)CC3)C2)c(C)c1C (stereo not drawn) [Example 252] | 93% | 59% |  |  | 
8 | COc1cc(C)c(S(=O)(=O)N2CCC(OCC(=O)NCCC3CCC(C(c4cccc(F)c4)N(C)C)CC3)C2)c(C)c1C (stereo not drawn) [Example 253] | 96% | 47% |  |  | 
9 | COc1cc(C)c(S(=O)(=O)N(CCOCC(=O)NCCC2CCC(C(c3cccs3)N(C)C)CC2)Cc2ccccc2)c(C)c1C (stereo not drawn) [Example 254] | 94% | 27% |  |  | 
10 | COc1ccc(S(=O)(=O)N2CCCCC2COCC(=O)NC2CCC(C(c3cccc(F)c3)N(C)C)CC2)cc1 (stereo not drawn) [Example 255] | 91% | 37% |  |  | 
11 | CN(C)C(c1ccc(F)cc1)C1CCC(NC(=O)COC2CCCCC2N(C)S(=O)(=O)c2ccc(Cl)c(Cl)c2)CC1 (stereo not drawn) [Example 256] | 84% | 52% |  |  | 
12 | CN(C)C(c1cccc(F)c1)C1CCC(CNC(=O)COC2CCN(S(=O)(=O)c3ccc(Cl)cc3)C2)CC1 (stereo not drawn) [Example 258] | 84% | −12% |  |  | 
13 | CN(C)C(c1cccc(F)c1)C1CCC(CCNC(=O)COC2CCN(S(=O)(=O)c3ccc(Cl)cc3Cl)C2)CC1 (stereo not drawn) [Example 259] | 90% | 72% |  |  | 
14 | COc1ccc(S(=O)(=O)N2CCC(OCC(=O)NCC3CCC(C(c4ccc(Cl)cc4)N(C)C)CC3)C2)cc1OC (stereo not drawn) [Example 260] | 88% | −7% |  |  | 
15 | COc1ccc(S(=O)(=O)N2CCCCC2COCC(=O)NC2CCC(C(c3cccs3)N(C)C)CC2)cc1OC (stereo not drawn) [Example 261] | 85% | −28% |  |  | 
16 | COc1ccc(S(=O)(=O)N2CCC(OCC(=O)NCCC3CCC(C(c4cccc(F)c4)N(C)C)CC3)C2)cc1OC (stereo not drawn) [Example 262] | 90% | −6% |  |  | 
17 | CN(C)C(c1ccc(Cl)cc1)C1CCC(CNC(=O)COCCN(C)S(=O)(=O)c2ccc(F)cc2)CC1 (stereo not drawn) [Example 263] | 102% | 18% |  |  | 
18 | Cc1cc(C)c(S(=O)(=O)N2CCC(OCC(=O)NCCC3CCC(C(c4cccc(F)c4)N(C)C)CC3)C2)c(C)c1 (stereo not drawn) [Example 264] | 82% | 77% |  |  | 

Row | SMILES | 5-HT (inhibition of reuptake of serotonin, % inhibition) [1] | B1R Ant. h [10 μM] % Inhibition [2] | inhibition at 10 µM [1] | inhibition at 10 µM [2] | 5-HT reuptake [1]
19 | COc1cc(C)c(S(=O)(=O)N2CCC(OCC(=O)NCC3CCC(C(c4cccc(F)c4)N(C)C)CC3)C2)c(C)c1 (stereo not drawn) [Example 265] | 95% | 93% |  |  | 
20 | CN(C)C(c1cccc(F)c1)C1CCC(NC(=O)COCC2CCCN(S(=O)(=O)c3ccccc3)C2)CC1 (stereo not drawn) [Example 266] | 97% | 4% |  |  | 
21 | CN(C)C(c1ccc(F)cc1)C1CCC(CNC(=O)COCC2CCCN2S(=O)(=O)c2ccc(Cl)c(Cl)c2)CC1 (stereo not drawn) [Example 267] | 94% | 68% |  |  | 
22 | COc1ccc(S(=O)(=O)N2CCCC2COCC(=O)NC2CCC(C(c3cccc(F)c3)N(C)C)CC2)cc1 (stereo not drawn) [Example 268] | 92% | 7% |  |  | 
23 | CN(C)C(c1ccc(Cl)cc1)C1CCC(CNC(=O)COC2CCCCC2N(C)S(=O)(=O)c2ccc(Cl)c(Cl)c2)CC1 (stereo not drawn) [Example 269] | 87% | 7% |  |  | 
24 | CN(C)C(c1cccc(F)c1)C1CCC(NC(=O)COC2CCN(S(=O)(=O)c3ccccc3)C2)CC1 (stereo not drawn) [Example 271] | 93% | −7% |  |  | 
25 | Cc1ccc(S(=O)(=O)N2CCC(OCC(=O)NCCC3CCC(C(c4cccs4)N(C)C)CC3)C2)cc1 (stereo not drawn) [Example 272] | 88% | 20% |  |  | 
26 | Cc1ccc(S(=O)(=O)N(C)CCOCC(=O)NCC2CCC(C(c3ccc(Cl)cc3)N(C)C)CC2)cc1 (stereo not drawn) [Example 273] | 91% | 25% |  |  | 
27 | CN(C)C(c1ccc(Cl)cc1)C1CCC(CCNC(=O)COCCN(C)S(=O)(=O)c2c(Cl)cccc2Cl)CC1 (stereo not drawn) [Example 274] | 81% | 100% |  |  | 
28 | CN(C)C(c1cccc(F)c1)C1CCC(CNC(=O)COC2CCN(S(=O)(=O)c3ccc(F)cc3)C2)CC1 (stereo not drawn) [Example 275] | 80% | 15% |  |  | 
29 | CN(C)C(c1cccs1)C1CCC(CNC(=O)COC2CCN(S(=O)(=O)c3ccccc3)CC2)CC1 (stereo not drawn) [Example 276] | 93% | −12% |  |  | 
30 | CN(C)C(c1cccc(F)c1)C1CCC(NC(=O)COC2CCCN(S(=O)(=O)c3ccccc3)C2)CC1 (stereo not drawn) [Example 277] | 93% | 4% |  |  | 
31 | O=C(COCCN(C1CC1)S(=O)(=O)c1c(Cl)cc(Cl)cc1Cl)NC1CCC(C(c2ccccc2)N2CCCC2)CC1 (stereo not drawn) [Example 603, 2-{2-[cyclopropyl-(2,4,6-trichlorobenzenesulfonyl)-amino]-ethoxy}-N-[4-(phenylpyrrolidin-1-ylmethyl)-cyclohexyl]-acetamide] |  |  | 74% | 86% | 
32 | CN(CCOCC(=O)NC1CCC(C(c2ccccc2)N2CCCC2)CC1)S(=O)(=O)c1c(Cl)cc(Cl)cc1Cl (stereo not drawn) [Example 606, 2-{2-[methyl-(2,4,6-trichlorobenzenesulfonyl)-amino]-ethoxy}-N-[4-(phenylpyrrolidin-1-yl-methyl)-cyclohexyl]-acetamide] |  | 77% | 85% |  | 
33 | CN(C)C(c1ccccc1)C1CCC(NC(=O)COC2CCCN(S(=O)(=O)c3c(Cl)cc(Cl)cc3Cl)C2)CC1 (stereo not drawn) [Example 608, N-[4-(dimethylaminophenylmethyl)-cyclohexyl]-2-[1-(2,4,6-trichlorobenzenesulfonyl)-piperidin-3-yloxy]-acetamide] |  |  | 81% | 78% | 
34 | CN(C)C(c1ccccc1)C1CCC(NC(=O)COC2CCN(S(=O)(=O)c3c(Cl)cc(Cl)cc3Cl)C2)CC1 (stereo not drawn) [Example 609, N-[4-(dimethylaminophenylmethyl)-cyclohexyl]-2-[1-(2,4,6-trichlorobenzenesulfonyl)-pyrrolidin-3-yloxy]-acetamide] |  |  | 86% | 64% | 
35 | CN(C)C(c1ccccc1)C1CCC(NC(=O)COCC2CCCN2S(=O)(=O)c2c(Cl)cc(Cl)cc2Cl)CC1 (stereo not drawn) [Example 611, N-[4-(Dimethylaminophenylmethyl)-cyclohexyl]-2-[1-(2,4,6-trichlorobenzenesulfonyl)-pyrrolidin-2-ylmethoxy]-acetamide] |  | 97% |  |  | 84 % inhibition
36 | CN(C)C(c1ccccc1)C1CCC(NC(=O)COCC2CCCN2S(=O)(=O)c2c(Cl)cc(Cl)cc2Cl)CC1 (stereo not drawn) [Example 612, N-[4-(Dimethylaminophenylmethyl)-cyclohexyl]-2-[1-(2,4,6-trichlorobenzenesulfonyl)-pyrrolidin-2-ylmethoxy]-acetamide] |  | 103% |  |  | 84 % inhibition

Reference: patent publication US8106055B2, “Substituted amide compounds” (Gruenenthal GmbH, priority 2007, dated 2012)
